Like-named read-outs stand apart in the source and are kept apart here.
What was measured:
[1] = molecular target: BTK (Homo sapiens (Human), UniProt Q06187); experiment: Reaction Biology HotSpot kinase assay; format: biochemical; conditions: 500 nM compound; read-out: Percentage kinase inhibition BTK
Outline: (§1)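 Phosphotransfer from [γ-33P]ATP was quantified after filter binding on P81 paper. Conditions: 20 mM HEPES pH 7.5, 10 mM MgCl2, 0.1 mM Na3VO4, 2 mM DTT, 0.02 mg/mL BSA; ATP 100 μM final; 2 h at room temperature. Compound was dosed at 500 nM.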

[2] = molecular target: TIE2/TEK (Homo sapiens (Human), UniProt Q02763); experiment: Reaction Biology HotSpot kinase assay; format: biochemical; conditions: 500 nM compound; read-out: Percentage kinase inhibition TIE2/TEK
Outline: as §1

[3] = molecular target: BRAF (Homo sapiens (Human), UniProt P15056); experiment: Reaction Biology HotSpot kinase assay; format: biochemical; conditions: 500 nM compound; read-out: Percentage kinase inhibition BRAF
BRAF, sequence (P15056 whole entry): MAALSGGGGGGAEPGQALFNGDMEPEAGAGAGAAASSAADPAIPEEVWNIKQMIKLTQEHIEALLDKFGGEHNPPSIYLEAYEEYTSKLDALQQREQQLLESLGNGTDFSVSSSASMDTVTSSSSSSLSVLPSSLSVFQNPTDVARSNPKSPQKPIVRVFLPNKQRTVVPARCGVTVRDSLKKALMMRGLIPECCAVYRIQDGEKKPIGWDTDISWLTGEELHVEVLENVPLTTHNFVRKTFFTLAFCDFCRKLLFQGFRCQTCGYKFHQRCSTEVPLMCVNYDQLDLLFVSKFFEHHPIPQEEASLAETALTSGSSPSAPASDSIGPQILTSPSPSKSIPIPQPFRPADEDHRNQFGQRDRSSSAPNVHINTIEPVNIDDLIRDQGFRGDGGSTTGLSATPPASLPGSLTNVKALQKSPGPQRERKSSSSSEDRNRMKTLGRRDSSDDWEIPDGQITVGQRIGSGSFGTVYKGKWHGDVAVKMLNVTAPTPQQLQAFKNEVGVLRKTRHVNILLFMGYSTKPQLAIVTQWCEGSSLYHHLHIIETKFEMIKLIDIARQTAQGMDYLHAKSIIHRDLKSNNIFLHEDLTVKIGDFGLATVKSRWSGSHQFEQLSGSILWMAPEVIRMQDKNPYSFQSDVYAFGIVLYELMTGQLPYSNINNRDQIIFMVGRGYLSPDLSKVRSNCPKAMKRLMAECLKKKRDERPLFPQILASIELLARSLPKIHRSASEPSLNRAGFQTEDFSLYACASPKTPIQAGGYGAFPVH
Outline: (§2)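 Each compound was tested at 500 nM, with 33P incorporation from ATP (100 μM final, including [γ-33P]ATP) measured by P81 paper capture after a 2 h room-temperature reaction.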

[4] = molecular target: FLT1/VEGFR1 (Homo sapiens (Human), UniProt P17948); experiment: Reaction Biology HotSpot kinase assay; format: biochemical; conditions: 500 nM compound; read-out: Percentage kinase inhibition FLT1/VEGFR1
Outline: as §1

[5] = molecular target: ERBB2/HER2 (Homo sapiens (Human), UniProt P04626); experiment: Reaction Biology HotSpot kinase assay; format: biochemical; conditions: 500 nM compound; read-out: Percentage kinase inhibition ERBB2/HER2
Outline: as §1

[6] = molecular target: c-MER (Homo sapiens (Human), UniProt Q12866); experiment: Reaction Biology HotSpot kinase assay; format: biochemical; conditions: 500 nM compound; read-out: Percentage kinase inhibition c-MER
Outline: as §1

[7] = molecular target: EPHA5 (Homo sapiens (Human), UniProt P54756); experiment: Reaction Biology HotSpot kinase assay; format: biochemical; conditions: 500 nM compound; read-out: Percentage kinase inhibition EPHA5
Outline: as §1

[8] = molecular target: FGR (Homo sapiens (Human), UniProt P09769); experiment: Reaction Biology HotSpot kinase assay; format: biochemical; conditions: 500 nM compound; read-out: Percentage kinase inhibition FGR
FGR, sequence (P09769 whole entry): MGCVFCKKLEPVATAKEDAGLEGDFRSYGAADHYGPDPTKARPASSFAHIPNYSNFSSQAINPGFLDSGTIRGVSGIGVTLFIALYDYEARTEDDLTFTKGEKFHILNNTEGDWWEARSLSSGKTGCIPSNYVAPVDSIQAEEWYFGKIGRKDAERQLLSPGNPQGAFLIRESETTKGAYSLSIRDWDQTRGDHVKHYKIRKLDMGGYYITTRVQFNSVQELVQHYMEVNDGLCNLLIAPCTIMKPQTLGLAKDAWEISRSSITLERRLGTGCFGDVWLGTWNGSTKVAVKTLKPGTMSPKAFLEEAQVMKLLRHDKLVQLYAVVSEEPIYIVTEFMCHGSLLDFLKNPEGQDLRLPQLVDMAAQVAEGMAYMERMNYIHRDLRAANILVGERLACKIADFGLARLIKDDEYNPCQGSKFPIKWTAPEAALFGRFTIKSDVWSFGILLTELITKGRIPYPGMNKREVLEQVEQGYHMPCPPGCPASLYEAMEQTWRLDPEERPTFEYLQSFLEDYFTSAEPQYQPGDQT
Outline: as §1

[9] = molecular target: FGFR1 (Homo sapiens (Human), UniProt P11362); experiment: Reaction Biology HotSpot kinase assay; format: biochemical; conditions: 500 nM compound; read-out: Percentage kinase inhibition FGFR1
Outline: (§3)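 HotSpot 33P transfer format. Enzyme, substrate and 500 nM test compound sit together for 20 min, then labelled and unlabelled ATP totalling 100 μM are added and phosphorylation proceeds for 2 h at room temperature. Products are captured on P81 cellulose paper, and activity is expressed relative to DMSO.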

[10] = molecular target: YES/YES1 (Homo sapiens (Human), UniProt P07947); experiment: Reaction Biology HotSpot kinase assay; format: biochemical; conditions: 500 nM compound; read-out: Percentage kinase inhibition YES/YES1
YES/YES1, sequence (P07947 whole entry): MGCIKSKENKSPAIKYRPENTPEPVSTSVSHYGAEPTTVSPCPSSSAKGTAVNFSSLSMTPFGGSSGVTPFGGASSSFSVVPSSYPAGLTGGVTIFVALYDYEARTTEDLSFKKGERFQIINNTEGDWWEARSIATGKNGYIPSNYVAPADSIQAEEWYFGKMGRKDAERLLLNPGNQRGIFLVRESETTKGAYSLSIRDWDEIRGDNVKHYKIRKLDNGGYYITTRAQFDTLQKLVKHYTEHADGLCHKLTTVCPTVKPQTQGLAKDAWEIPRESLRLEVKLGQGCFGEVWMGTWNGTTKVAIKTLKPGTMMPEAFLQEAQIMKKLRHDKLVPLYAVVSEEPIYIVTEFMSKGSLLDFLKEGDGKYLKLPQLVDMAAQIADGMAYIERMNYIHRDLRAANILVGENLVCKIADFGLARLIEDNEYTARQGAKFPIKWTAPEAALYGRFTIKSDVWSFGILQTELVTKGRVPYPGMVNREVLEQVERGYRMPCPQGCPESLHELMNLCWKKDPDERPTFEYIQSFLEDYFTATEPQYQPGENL
Outline: as §1

[11] = molecular target: ROS/ROS1 (Homo sapiens (Human), UniProt P08922); experiment: Reaction Biology HotSpot kinase assay; format: biochemical; conditions: 500 nM compound; read-out: Percentage kinase inhibition ROS/ROS1
Outline: as §1

[12] = molecular target: c-Met (Homo sapiens (Human), UniProt P08581); experiment: Reaction Biology HotSpot kinase assay; format: biochemical; conditions: 500 nM compound; read-out: Percentage kinase inhibition c-Met
Outline: as §1

[13] = molecular target: FLT4/VEGFR3 (Homo sapiens (Human), UniProt P35916); experiment: Reaction Biology HotSpot kinase assay; format: biochemical; conditions: 500 nM compound; read-out: Percentage kinase inhibition FLT4/VEGFR3
FLT4/VEGFR3, sequence (P35916 25-1363): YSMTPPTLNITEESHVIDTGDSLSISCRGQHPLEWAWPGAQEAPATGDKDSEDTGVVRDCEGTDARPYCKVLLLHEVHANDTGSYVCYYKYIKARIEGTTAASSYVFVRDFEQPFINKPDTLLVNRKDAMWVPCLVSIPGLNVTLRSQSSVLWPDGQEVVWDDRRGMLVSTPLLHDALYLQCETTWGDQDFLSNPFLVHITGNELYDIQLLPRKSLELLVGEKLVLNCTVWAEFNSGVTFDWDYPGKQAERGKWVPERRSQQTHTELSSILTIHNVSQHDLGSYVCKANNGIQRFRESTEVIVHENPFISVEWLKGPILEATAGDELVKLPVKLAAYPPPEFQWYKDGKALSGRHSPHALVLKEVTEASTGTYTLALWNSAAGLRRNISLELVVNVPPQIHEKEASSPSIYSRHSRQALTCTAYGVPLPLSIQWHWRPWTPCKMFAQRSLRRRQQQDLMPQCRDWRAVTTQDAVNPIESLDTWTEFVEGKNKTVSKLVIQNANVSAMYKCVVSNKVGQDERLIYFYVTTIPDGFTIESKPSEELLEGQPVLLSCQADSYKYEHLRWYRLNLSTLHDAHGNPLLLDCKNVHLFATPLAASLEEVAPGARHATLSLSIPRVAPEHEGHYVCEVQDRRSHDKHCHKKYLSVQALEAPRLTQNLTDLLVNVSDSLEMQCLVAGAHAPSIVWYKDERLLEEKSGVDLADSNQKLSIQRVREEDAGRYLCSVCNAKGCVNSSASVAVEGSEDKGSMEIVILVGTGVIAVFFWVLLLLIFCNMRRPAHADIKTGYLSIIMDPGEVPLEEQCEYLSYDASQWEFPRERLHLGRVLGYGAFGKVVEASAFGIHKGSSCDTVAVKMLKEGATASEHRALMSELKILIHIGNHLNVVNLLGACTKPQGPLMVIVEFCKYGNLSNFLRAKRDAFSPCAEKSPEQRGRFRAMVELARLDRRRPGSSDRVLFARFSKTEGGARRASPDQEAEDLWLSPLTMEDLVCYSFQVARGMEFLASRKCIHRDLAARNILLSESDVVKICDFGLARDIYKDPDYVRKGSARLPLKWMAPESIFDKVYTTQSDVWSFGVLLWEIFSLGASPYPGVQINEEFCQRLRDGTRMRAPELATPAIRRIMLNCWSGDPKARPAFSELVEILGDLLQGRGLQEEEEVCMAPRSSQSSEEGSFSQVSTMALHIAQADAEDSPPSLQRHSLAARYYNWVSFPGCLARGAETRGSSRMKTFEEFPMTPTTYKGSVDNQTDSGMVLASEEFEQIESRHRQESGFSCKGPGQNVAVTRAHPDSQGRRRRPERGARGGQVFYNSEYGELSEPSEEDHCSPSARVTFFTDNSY
Outline: as §1

[14] = molecular target: KDR/VEGFR2 (Homo sapiens (Human), UniProt P35968); experiment: Reaction Biology HotSpot kinase assay; format: biochemical; conditions: 500 nM compound; read-out: Percentage kinase inhibition KDR/VEGFR2
Outline: as §1

[15] = molecular target: TRKB (Homo sapiens (Human), UniProt Q16620); experiment: Reaction Biology HotSpot kinase assay; format: biochemical; conditions: 500 nM compound; read-out: Percentage kinase inhibition TRKB
Outline: as §1

[16] = molecular target: PDGFRa (Homo sapiens (Human), UniProt P16234); experiment: Reaction Biology HotSpot kinase assay; format: biochemical; conditions: 500 nM compound; read-out: Percentage kinase inhibition PDGFRa
PDGFRa, sequence (P16234 24-1089): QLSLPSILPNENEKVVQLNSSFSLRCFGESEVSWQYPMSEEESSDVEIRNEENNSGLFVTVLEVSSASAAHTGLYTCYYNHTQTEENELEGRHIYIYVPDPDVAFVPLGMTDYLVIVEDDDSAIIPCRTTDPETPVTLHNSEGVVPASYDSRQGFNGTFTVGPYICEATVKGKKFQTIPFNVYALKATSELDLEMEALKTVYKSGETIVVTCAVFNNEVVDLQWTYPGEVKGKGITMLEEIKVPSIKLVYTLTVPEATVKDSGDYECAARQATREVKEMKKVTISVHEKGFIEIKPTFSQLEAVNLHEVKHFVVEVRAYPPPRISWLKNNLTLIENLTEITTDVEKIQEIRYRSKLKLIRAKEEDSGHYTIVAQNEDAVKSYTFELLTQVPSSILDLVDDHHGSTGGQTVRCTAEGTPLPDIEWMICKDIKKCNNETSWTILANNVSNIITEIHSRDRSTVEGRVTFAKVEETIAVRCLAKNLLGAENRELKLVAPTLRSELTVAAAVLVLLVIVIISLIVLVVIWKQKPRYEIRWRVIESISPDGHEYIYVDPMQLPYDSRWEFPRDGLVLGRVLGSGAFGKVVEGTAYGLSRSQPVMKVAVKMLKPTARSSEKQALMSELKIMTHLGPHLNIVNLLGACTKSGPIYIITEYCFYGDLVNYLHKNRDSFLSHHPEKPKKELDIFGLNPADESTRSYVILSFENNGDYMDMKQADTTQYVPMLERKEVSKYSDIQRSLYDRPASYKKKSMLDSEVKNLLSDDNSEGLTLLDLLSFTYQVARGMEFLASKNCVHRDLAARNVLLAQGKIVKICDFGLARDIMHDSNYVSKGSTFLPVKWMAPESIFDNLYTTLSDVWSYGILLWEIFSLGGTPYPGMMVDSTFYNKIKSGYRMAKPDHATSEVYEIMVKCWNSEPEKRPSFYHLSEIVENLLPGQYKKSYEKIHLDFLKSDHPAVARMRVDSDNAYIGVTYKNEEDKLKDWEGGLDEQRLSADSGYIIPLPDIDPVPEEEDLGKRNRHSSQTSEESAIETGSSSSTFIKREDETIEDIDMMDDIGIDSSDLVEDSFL
Outline: as §1

[17] = molecular target: FLT3 (Homo sapiens (Human), UniProt P36888); experiment: Reaction Biology HotSpot kinase assay; format: biochemical; conditions: for inhibition at 0.5 µM: read-out: % inhibition of FLT3 activity
Outline: as §3

[18] = molecular target: ALK (Homo sapiens (Human), UniProt Q9UM73); experiment: Reaction Biology HotSpot kinase assay; format: biochemical; conditions: 500 nM compound; read-out: Percentage kinase inhibition ALK
Outline: as §1

[19] = molecular target: PKCa (Homo sapiens (Human), UniProt P17252); experiment: Reaction Biology HotSpot kinase assay; format: biochemical; conditions: 500 nM compound; read-out: Percentage kinase inhibition PKCa
Outline: as §1

[20] = molecular target: AKT1 (Homo sapiens (Human), UniProt P31749); experiment: Reaction Biology HotSpot kinase assay; format: biochemical; conditions: 500 nM compound; read-out: Percentage kinase inhibition AKT1
Outline: as §3

[21] = molecular target: AXL (Homo sapiens (Human), UniProt P30530); experiment: Reaction Biology HotSpot kinase assay; format: biochemical; conditions: 500 nM compound; read-out: Percentage kinase inhibition AXL
Outline: as §2

[22] = molecular target: EGFR (Homo sapiens (Human), UniProt P00533); experiment: Reaction Biology HotSpot kinase assay; format: biochemical; conditions: 500 nM compound; read-out: Percentage kinase inhibition EGFR
Outline: as §1

[23] = molecular target: EPHB2 (Homo sapiens (Human), UniProt P29323); experiment: Reaction Biology HotSpot kinase assay; format: biochemical; conditions: 500 nM compound; read-out: Percentage kinase inhibition EPHB2
Outline: as §1

[24] = tested on: K562; experiment: IC50 proliferation assay (Alamar Blue, 72 h); format: cell-based; conditions: Homo sapiens
[25] = tested on: MV4-11; experiment: IC50 proliferation assay (Alamar Blue, 72 h); format: cell-based; conditions: Homo sapiens, MV4-11, 72 h; read-out: IC50 (proliferation inhibition) Cell line - MV4-11
Outline: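 Cells seeded ~18 h before treatment with semi-serial compound dilutions made in DMSO then growth medium. After 72 h exposure, Alamar Blue added and read following 4 h further at 37 °C; IC50 for proliferation inhibition.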

[26] = K562, Table 18, read-out: Inhibition of proliferation of K562 cell lines (CML)
[27] = K562, 72 h, read-out: IC50 (proliferation inhibition) Cell line - K562

BTK, sequence (Q06187 whole entry): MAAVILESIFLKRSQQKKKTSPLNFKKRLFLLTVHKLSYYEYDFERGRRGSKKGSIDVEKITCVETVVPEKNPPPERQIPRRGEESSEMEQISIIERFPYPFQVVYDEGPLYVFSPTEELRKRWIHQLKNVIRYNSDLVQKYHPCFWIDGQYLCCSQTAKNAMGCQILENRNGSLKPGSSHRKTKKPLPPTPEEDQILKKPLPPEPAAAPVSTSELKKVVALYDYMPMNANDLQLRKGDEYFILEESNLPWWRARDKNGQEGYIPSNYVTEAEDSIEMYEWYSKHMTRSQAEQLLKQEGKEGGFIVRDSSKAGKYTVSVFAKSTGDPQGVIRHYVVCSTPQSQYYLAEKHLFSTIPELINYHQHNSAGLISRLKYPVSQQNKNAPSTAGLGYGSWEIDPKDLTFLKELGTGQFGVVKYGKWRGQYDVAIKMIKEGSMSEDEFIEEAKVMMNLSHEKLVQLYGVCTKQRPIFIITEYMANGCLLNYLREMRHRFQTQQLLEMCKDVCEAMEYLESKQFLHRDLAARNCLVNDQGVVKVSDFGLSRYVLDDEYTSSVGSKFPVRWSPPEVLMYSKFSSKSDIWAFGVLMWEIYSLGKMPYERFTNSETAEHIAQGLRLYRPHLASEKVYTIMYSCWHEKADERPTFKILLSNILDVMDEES

Compound | inhibition at 0.5 µM [1] | inhibition at 0.5 µM [2] | inhibition at 0.5 µM [3] | inhibition at 0.5 µM [4] | inhibition at 0.5 µM [5] | inhibition at 0.5 µM [6] | inhibition at 0.5 µM [7] | inhibition at 0.5 µM [8] | inhibition at 0.5 µM [9] | inhibition at 0.5 µM [10] | inhibition at 0.5 µM [11] | inhibition at 0.5 µM [12] | inhibition at 0.5 µM [13] | inhibition at 0.5 µM [14] | inhibition at 0.5 µM [15] | inhibition at 0.5 µM [16] | inhibition at 0.5 µM [18] | inhibition at 0.5 µM [19] | inhibition at 0.5 µM [20] | inhibition at 0.5 µM [21] | other results
Cc1ccc(C(=O)Nc2ccc(CN3CCN(C)CC3)c(C(F)(F)F)c2)cc1C#Cc1c(N)ncc2ccc(Cl)cc12 [HSN286] | 41% | 97% | 97% | 86% | 25% | 0% | 96% | 100% | 98% | 100% | 10% | 20% | 98% | 95% | 79% | 93% | 0% | 5% | 0% | 3% | inhibition at 0.5 µM [17]: 97%; inhibition at 0.5 µM [22]: 44%; inhibition at 0.5 µM [23]: 96%; IC50 [24, 26]: 3.5 ± 0.02 nM; IC50 [25]: 0.4 nM
COc1cc2nc(N)nc(C#Cc3cc(C(=O)Nc4ccc(CN5CCN(C)CC5)c(C(F)(F)F)c4)ccc3C)c2cc1OC [HSN325] | 4% | 47% | 38% | 42% | 4% | 0% | 30% | 39% | 58% | 41% | 0% | 15% | 42% | 90% | 0% | 53% | 2% | 5% | 0% | 3% | % inhibition of FLT3 activity ([17]; 500 nM compound): 34%; inhibition at 0.5 µM ([17]; 500 nM compound): 33%; inhibition at 0.5 µM [22]: 0%; inhibition at 0.5 µM [23]: 3%; IC50 [24, 27]: 444 nM; IC50 [24, 26]: 44 ± 0.1 nM; IC50 [25]: 135 nM
Cc1ccc(C(=O)Nc2ccc(CN3CCN(C)CC3)c(C(F)(F)F)c2)cc1C#Cc1cnc(N)c2ccccc12 [HSN334, 3-((1-aminoisoquinolin-4-yl)ethynyl)-4-methyl-N-(4-((4-methylpiperazin-1-yl)methyl)-3-(trifluoromethyl)phenyl)benzamide] | 46% | 99% | 96% | 79% | 31% | 0% | 97% | 100% | 96% | 100% | 0% | 14% | 79% | 94% | 41% | 86% | 0% | 0% | 0% | 5% | % inhibition of FLT3 activity [17]: 100%; inhibition at 0.5 µM [17]: 99%; inhibition at 0.5 µM [22]: 61%; inhibition at 0.5 µM [23]: 98%; IC50 [24, 27]: 6 nM; IC50 [24, 26]: 6.1 ± 0.1 nM; IC50 [25]: 1 nM

— patent publication US20250084039A1, “4-SUBSTITUTED AMINOISOQUINOLINE DERIVATIVES” (Purdue Research Foundation, priority 2016, published 2025)
